According to publication PMC7667655, “Targeted Covalent Inhibition of Plasmodium FK506 Binding Protein 35” (ACS Medicinal Chemistry Letters, 2020):
Entries after “also recorded” stand apart in the source; their conditions may differ.

Key:
[1] = Plasma stability assay, human; format: in vitro ADME; conditions: percent remaining, 1 µM, 37 °C, 5 hours
Procedure: In 96-well round-bottom plates, sorbitol -synchronized cultures of ring-stage NF54 P. falciparum parasites were established in triplicate and treated with varying concentrations of the inhibitors (25-0.0038 μM) serially diluted in complete medium. Parasite proliferation rates were analyzed after 72 h using the Renilla-Glo Luciferase Assay, and luminescence was measured using the GloMax® Discover Microplate Reader. EC 50 values were obtained from corrected dose-response curves using GraphPad Prism (version 5; GraphPad Software). Data represent the mean % luminescence relative to 5% DMSO-treated (vehicle, 100% growth) and 100 nM chloroquine-treated (no growth) controls.
In black, clear-bottom 96-well plates (No. 3904 Corning Life Sciences), HEK293T cells were plated at 2x10^5 cells/mL in DMEM high glucose, pyruvate media (ThermoFisher Scientific, cat. 11995073) supplemented with 10% FBS and 1% pen -strep (100 μL final volume). Cells were incubated overnight at 37°C, 5% CO2. Using a Tecan D300e digital dispenser, cells were dosed in triplicate […]
concentration, 100 mM stock in DMSO) and Carfilzomib (10 µM to 4.6 nM final concentration, 10 mM stock in DMSO) normalizing DMSO to 0.25%. Cells were then incubated at 37 °C, 5% CO2 for 72 hours. Following incubation, cells were treated with 70 µL CellTiter-Glo® Luminescent Cell Viability Assay Reagent (Promega, cat. G7570) and incubated in the dark at room temperature for 30 minutes. Plates were read using an EnVision Multimode Plate Reader (PerkinElmer). Cell viability data was normalized to DMSO controls and analyzed in GraphPad Prism 8 by fitting the data to “[Inhibitor] vs. normalized response – variable slope” model to obtain the curves.
Each compound was prepared in duplicate at 1 µM final concentration (0.2% DMSO) in human or mouse plasma (Aldrich). Samples were incubated at 37 °C for 5 hours with mixing at 350 rpm on an orbital shaker. Aliquots of each sample were taken at time zero and following 5 hours. Each sample was quenched by adding acetonitrile in a 3:1 ratio and further diluting with 50 µl of PBS.
After quenching, samples were centrifuged to pellet precipitated partic ulates and an aliquot of supernatant was diluted 1:1 with water. The resulting solution was analyzed by UPLC -MS/MS with compounds detected by MRM detection on a triple quadrupole mass spectrometer. The ratio of compound peak areas at 0 and 5 hours were use d to calculate the percent remaining.

[2] = target: T1, FKBP35 (Plasmodium falciparum, UniProt Q8I4V8); assay: Time course of covalent modification by LC-MS; format: biochemical; conditions: for K, rate of FKBP35 consumption: 2250 nM inhibitor : 450 nM FKBP35, 23 °C, one phase decay fit; for K’, rate of covalent adduct formation: 2250 nM inhibitor : 450 nM FKBP35, exponential plateau fit
T1 construct: FKBP35 Q5 -A128; 6His-SUMO (N, cleaved yes); made in house; host or cells: E. coli BL21 DE3
Description: RT=5.2). B. Overlay of mass determinations from LC traces in (A). FBD35 only (black, m/z = […]
chromatogram corresponding to Figure 4c detecting the CAM -peptide […] at […]
m/z 855.8668. D. Mass spec chromatogram corresponding to Figure 4d detecting the CAM - […]
peptide […] at m/z 855.8670. E. Mass spec chromatogram corresponding to Figure 4e which was unable to detect the mass of the 1c-inclusion peptide. F. Mass spec chromatogram corresponding to Figure 4f detecting the 1c-inclusion peptide […]
Figure S2. Time course of covalent modification. In order to compare rates of covalent modification, compounds 1a-c, 2a, and 2c were incubated with FKBP35 in a 5:1 ratio (2250 nM inhibitor : 450 nM FKBP35) and FKBP35 consumption or modification determined by LC -MS. A.
The concentration of residual FKBP35 as a function of time. Data was fit to an exponential “one phase decay” model which was used to calculate the rate (K) and half -life (t1/2) of the reaction.
The loss of FKBP35 in the DMSO and 1b controls is likely due to adsorption onto the vial. B.
Concentration of covalent adduct as a function of time. Data was fit to an “exponential plateau” regression model, which was used to calculate the rate of formation (K’). Compound 1b, which […]
C. Tabulated rates calculated from the regressions in A and B. The rates of FKBP35 consumption correlate strongly with the rates of […]
(also on this page, place not known: -inclusion 1c 0 20 40 60 0 200 400 600 Time (hours) FKBP35 (nM) Consumption of FKBP35 1a 1b 1c 2a 2c DMSO 0 20 40 60 0 200 400 600 Time (hours) Covalent Adduct (nM) Formation of Covalent Adduct 1a 1b 1c 2a 2c A B) […]
(1 picture or pasted object on this page, not shown here)
Experiments were performed using 0.4 mg/mL concentration of wild -type or mutant protein (6 - 9 uM), with and without synthes ized compounds at 40 µM and 2% DMSO (V/V). The respective reference scans were run under identical DSC conditions and subtracted from each sample scan.
The program was run in a continuous acquisition mode from 25°C to 90°C at a rate of 120C/h The heat capacity curves and midpoint temperature (Tm) were analyzed using Origin 7.0 software.
Fluorescence Polarization
The fluorescent tracer SLFb-2PEG-TAMRA was diluted in DMSO to 100 nM (100x stock concentration). FKBP proteins were diluted in assay buffer (150 mM NaCl, 20 mM HEPES pH 7.5, 0.002% Triton X -100) to the indicated concentration. 100x DMSO tracer stock was added to the protein buffer solution to a 1X final concentration and 20 µL of the mixture was aliquoted into each well of a black 384 -well assay plate (No. 3820, Corning Life Sciences). The plate was briefly centrifuged to remove bubbles. Using a d300e digital dispenser (Tecan), competitive ligands (10 mM stock in DMSO) were aliquoted in triplicate in an 8 -point 3x dilution series (30 µM to 13.7 nM final concentra tion) and normalized to 2% total DMSO concentration. Following incubation at room temperature (RT) for one hour, fluorescence polarization was measured using an EnVision Multimode Plate Reader (PerkinElmer) with the TAMRA Dual -FP mirror and filter kit. […]
analyzed in GraphPad Prism 8 by fitting the data to the “One Site – Fit Ki” model to obtain the […]
Time Course Analysis of Covalent Inhibition
The following analy sis was performed as described on two different days, yielding similar results.
One replicate is shown for clarity. In 1.5 mL snap -top tubes, ligands 1a, 1b, 1c, 2a, and 2c were each diluted to 450 μM in DMSO to produce 200x stock solutions. In a separate 1.5 mL snap-top tube, isolated FKBP35 protein was diluted to 90 μM in the reaction buffer (150 mM NaCl, 20 mM HEPES pH = 7.5) to produce a 200x stock solution. In 2 mL glass mass spec vials, 5 μL of each 200x ligand solution was diluted in 990 μL reaction buffer. Immediately prior to injection of each t=0 time point, 5 μL of the 200x protein solution was added to the mass spec vial and mixed. Samples were analyzed using the Waters BioAccord LC-ToF (composed of an ACQUITY I -Class UPLC and […]

T1 sequence (Q8I4V8 5-128): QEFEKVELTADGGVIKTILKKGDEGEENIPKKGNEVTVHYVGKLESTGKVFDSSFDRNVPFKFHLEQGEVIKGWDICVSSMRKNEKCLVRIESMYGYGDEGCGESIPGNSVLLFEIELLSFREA

SMILES | Plasma Stability (human) [1] [%] | covalent adduct formation (in words) ([2]; LC-MS time course) | K, rate of FKBP35 consumption [2] [h⁻¹] | K’, rate of covalent adduct formation [2] [h⁻¹]
CCC(=O)Nc1cccc([C@@H](CCc2ccc(OC)c(OC)c2)OC(=O)[C@@H]2CCCCN2C(=O)C(=O)C(C)(C)CC)c1 [1b] | 90 | no binding; also recorded: does not form any adduct |  | 
C=CC(=O)Nc1cccc([C@@H](CCc2ccc(OC)c(OC)c2)OC(=O)[C@@H]2CCCCN2C(=O)C(=O)C(C)(C)CC)c1 [1a] | 92 |  | 0.0724 | 0.05948
C=CC(=O)Nc1ccccc1[C@@H](CCc1ccc(OC)c(OC)c1)OC(=O)[C@@H]1CCCCN1C(=O)C(=O)C(C)(C)CC [1c] | 62 |  | 0.1132 | 0.1128
C=CC(=O)OCC(C)(C)C(=O)C(=O)N1CCCC[C@H]1C(=O)O[C@H](CCc1ccc(OC)c(OC)c1)c1ccccc1 [2c] | 0 |  | 0.8871 | 0.9298
